Tests used:
Type in all cases: in vivo
[1] = tested on: Erysiphe graminis; test: Powdery Mildew of Wheat 1-day protectant whole plant test (ERYSGT 1DP); settings: 100 ppm spray to run off, wheat (cultivar Monon), inoculated after 24 hours
[2] = tested on: Phytophthora infestans; settings: 100 ppm spray to run off, tomatoes (cultivar Rutgers), inoculated after 24 hours
[3] = tested on: Puccinia recondita; test: Brown rust of wheat 1-day protectant whole plant test (PUCCRT 1DP); settings: 100 ppm spray to run off, wheat (cultivar Monon), inoculated after 24 hours

CNC(=O)/C(=N/OC)c1ccccc1COc1ncc(C2=NOCC2)cc1C [Compound 1, (2E)-2-[2˜({[5-(4,5-dihydroisoxazol-3-yl)-3-methylpyridin-2-yl]oxy}methyl)phenyl]-2-(methoxyimino)-N-methylethanamide]
>95%: ERYSGT 1DP percent control of the plant disease [1] | PHYTIN 1DP percent control of the plant disease [2] | PUCCRT 1DP percent control of the plant disease [3]

Reference: patent US20040063763A1, “2-METHOXYIMINO-2(PYRIDINYLOXYMETHYL)PHENYL ACETAMIDES USEFUL AS FUNGICIDES” (priority 2003, published 2004)
